Like-named read-outs stand apart in the source and are kept apart here. *1 amine or outer side, *2 acyl side, *3 side chain or, on linkers, in order; H or OH if unused. Where a SMILES comes first, the peptide text is derived from it. The star is where a group is joined. X1 = O=C(CCCC[C@@H]1SC[C@@H]2NC(=O)N[C@@H]21)NCCCOCCOCCOCCCN*; Suc = O=C(CCC(=O)[*:2])[*:1]
Tests used:
[1] = molecular target: T1, endogenous full-length SNX27 (Homo sapiens, UniProt Q96L92); assay: Single-point nHU-WB, 12 PBM peptide baits, Jurkat extract; type: binding
T1 construct: Supernatant fractions were probed with specific antibodies against endogenous full-length PDZ domain–containing proteins SCRIB and SNX27; endogenous in cells; host or cells: Jurkat E6.1 total cell extract

[2] = molecular target: endogenous full-length SCRIB (Homo sapiens, UniProt Q14160); assay: as above; type: binding
Sequence of endogenous full-length SCRIB (Q14160 whole entry, the tested form may be a part): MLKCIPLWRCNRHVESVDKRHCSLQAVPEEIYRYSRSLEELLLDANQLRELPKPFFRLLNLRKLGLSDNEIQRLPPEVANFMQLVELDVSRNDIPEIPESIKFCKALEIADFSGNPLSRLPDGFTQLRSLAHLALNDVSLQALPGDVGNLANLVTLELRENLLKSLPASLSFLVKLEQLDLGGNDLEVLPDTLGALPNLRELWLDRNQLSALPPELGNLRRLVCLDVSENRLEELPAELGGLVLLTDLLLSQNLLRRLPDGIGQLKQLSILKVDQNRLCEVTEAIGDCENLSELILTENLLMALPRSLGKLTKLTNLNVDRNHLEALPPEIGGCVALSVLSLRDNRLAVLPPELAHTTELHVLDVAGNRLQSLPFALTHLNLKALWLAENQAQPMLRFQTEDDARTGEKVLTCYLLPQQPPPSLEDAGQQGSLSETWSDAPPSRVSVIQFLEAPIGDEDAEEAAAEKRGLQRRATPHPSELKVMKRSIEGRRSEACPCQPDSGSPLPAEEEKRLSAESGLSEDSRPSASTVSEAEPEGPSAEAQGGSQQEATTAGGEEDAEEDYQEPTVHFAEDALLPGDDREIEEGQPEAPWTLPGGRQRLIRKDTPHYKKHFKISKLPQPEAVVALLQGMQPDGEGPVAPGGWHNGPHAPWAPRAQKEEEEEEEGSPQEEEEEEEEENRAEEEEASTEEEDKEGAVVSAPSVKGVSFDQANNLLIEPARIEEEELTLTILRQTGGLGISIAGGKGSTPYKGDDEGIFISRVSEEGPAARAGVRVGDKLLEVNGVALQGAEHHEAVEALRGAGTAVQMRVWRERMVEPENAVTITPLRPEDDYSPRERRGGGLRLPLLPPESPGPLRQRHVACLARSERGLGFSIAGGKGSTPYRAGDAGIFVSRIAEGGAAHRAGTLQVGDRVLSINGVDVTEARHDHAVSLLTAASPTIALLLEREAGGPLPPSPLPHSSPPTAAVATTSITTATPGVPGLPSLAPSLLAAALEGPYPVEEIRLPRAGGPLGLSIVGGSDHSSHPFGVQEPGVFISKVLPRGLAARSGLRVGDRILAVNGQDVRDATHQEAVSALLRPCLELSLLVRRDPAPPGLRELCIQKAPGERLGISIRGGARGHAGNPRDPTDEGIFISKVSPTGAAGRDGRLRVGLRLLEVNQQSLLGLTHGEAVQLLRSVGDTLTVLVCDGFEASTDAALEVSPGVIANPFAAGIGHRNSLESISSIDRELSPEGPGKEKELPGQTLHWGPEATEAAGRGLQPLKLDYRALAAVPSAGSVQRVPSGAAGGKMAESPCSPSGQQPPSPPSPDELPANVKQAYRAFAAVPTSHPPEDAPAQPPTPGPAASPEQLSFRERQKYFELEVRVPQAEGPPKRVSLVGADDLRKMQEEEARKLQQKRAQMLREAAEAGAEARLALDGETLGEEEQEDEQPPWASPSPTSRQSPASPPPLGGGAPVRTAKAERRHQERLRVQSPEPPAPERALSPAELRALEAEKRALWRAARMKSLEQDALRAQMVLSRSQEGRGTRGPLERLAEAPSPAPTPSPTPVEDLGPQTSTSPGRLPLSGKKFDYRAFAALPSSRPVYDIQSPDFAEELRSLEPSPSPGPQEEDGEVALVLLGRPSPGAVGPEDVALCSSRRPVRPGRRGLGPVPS

[3] = molecular target: isolated PDZ domain of SNX27; settings: 10-mer PBM peptide vs isolated PDZ domain, holdup; cited from earlier work
[4] = molecular target: SCRIB PDZ1; settings: fragmentomic, isolated PDZ domain; cited from earlier work
Source text: Supplement sciadv.ade3828_table_s1.zip/sciadv.ade3828_table_s1.xlsx, sheet "nHU-WB_SP" | column: Domain-motif fragmentomic affinities (ProfAff)

[5] = molecular target: SCRIB PDZ2; settings: fragmentomic, isolated PDZ domain; cited from earlier work
Source text: (§1) Supplement sciadv.ade3828_table_s1.zip/sciadv.ade3828_table_s1.xlsx, sheet "nHU-WB_SP"

[6] = molecular target: SCRIB PDZ3; settings: fragmentomic, isolated PDZ domain; cited from earlier work
Source text: as §1

Row | Kd ([1]; apparent, Eq. 2, ~10 μM bait, Jurkat extract, mean of n = 3, read-out: av.pKapp (converted)) | Kd ([2]; apparent, Eq. 2, ~10 μM bait, Jurkat extract, mean of replicates with a value, read-out: av.pKapp (converted)) | Compound | pKd (fragmentomic affinity) [3] | pKd_PDZ1 [4] | pKd_PDZ2 [5] | pKd_PDZ3 [6] | Kd [1] | Kd [2]
1 | 1.51 µM | 1.17 µM | CC(C)[C@H](NC(=O)CN)C(=O)N[C@@H](CCC(=O)O)C(=O)NCC(=O)N[C@@H](CO)C(=O)N[C@@H](CC(=O)O)C(=O)N[C@H](C(=O)N[C@H](C(=O)N[C@@H](CCC(=O)O)C(=O)N[C@@H](C)C(=O)O)[C@@H](C)O)[C@@H](C)O [MAP4] (H-GVEGSDTTEA-OH) |  |  |  |  |  | 
2 |  |  | CC(C)C[C@H](NC(=O)[C@H](CO)NC(=O)[C@@H](NC(=O)[C@H](CCC(=O)O)NC(=O)[C@H](CC(C)C)NC(=O)[C@H](CO)NC(=O)[C@H](Cc1c[nH]cn1)NC(=O)[C@H](CC(C)C)NC(=O)[C@@H]1CCCN1C(=O)[C@H](CO)NC(=O)CCC(=O)NCCCOCCOCCOCCCNC(=O)CCCC[C@@H]1SC[C@@H]2NC(=O)N[C@@H]21)[C@@H](C)O)C(=O)O [ATP2B1] ({X1-Suc}-SPLHSLETSL-OH; C-terminus assumed) | 5.48 | 5.36 | 4.27 | 5.54 |  | 
3 |  |  | CC(C)[C@H](NC(=O)[C@@H]1CCCN1C(=O)[C@H](CO)NC(=O)[C@H](CCC(=O)O)NC(=O)[C@H](CCC(=O)O)NC(=O)[C@H](CCC(=O)O)NC(=O)[C@H](CCCCN)NC(=O)[C@@H]1CCCN1C(=O)CNC(=O)CNC(=O)CCC(=O)NCCCOCCOCCOCCCNC(=O)CCCC[C@@H]1SC[C@@H]2NC(=O)N[C@@H]21)C(=O)O [SLC16A1] ({X1-Suc}-GGPKEEESPV-OH; C-terminus assumed) | 5.27 | 5.18 |  |  | 6.17 µM | 69.2 µM
4 |  |  | CSCC[C@H](NC(=O)[C@@H](NC(=O)[C@H](CO)NC(=O)[C@H](CCC(=O)O)NC(=O)[C@H](CCCCN)NC(=O)[C@H](CCC(=O)O)NC(=O)[C@H](CO)NC(=O)[C@H](C)NC(=O)[C@@H](NC(=O)[C@@H](NC(=O)CCC(=O)NCCCOCCOCCOCCCNC(=O)CCCC[C@@H]1SC[C@@H]2NC(=O)N[C@@H]21)[C@@H](C)O)C(C)C)C(C)C)C(=O)O [SLC1A5] ({X1-Suc}-TVASEKESVM-OH; C-terminus assumed) | 5.29 | 5.20 |  | 3.97 | 8.91 µM | 112 µM
5 |  |  | CC(C)C[C@H](NC(=O)[C@H](CO)NC(=O)[C@@H](NC(=O)[C@H](CCC(=O)O)NC(=O)[C@H](CCC(=O)O)NC(=O)[C@H](CS)NC(=O)[C@@H](NC(=O)[C@H](CCCNC(=N)N)NC(=O)[C@@H](NC(=O)[C@@H]1CCCN1C(=O)CCC(=O)NCCCOCCOCCOCCCNC(=O)CCCC[C@@H]1SC[C@@H]2NC(=O)N[C@@H]21)C(C)C)C(C)C)[C@@H](C)O)C(=O)O [OTULIN] ({X1-Suc}-PVRVCEETSL-OH; C-terminus assumed) | 5.58 | 5.44 | 4.70 | 5.64 |  | 
6 |  |  | CC(C)C[C@H](NC(=O)[C@@H]1CCCN1C(=O)[C@H](Cc1c[nH]cn1)NC(=O)[C@H](Cc1ccccc1)NC(=O)CCC(=O)NCCCOCCOCCOCCCNC(=O)CCCC[C@@H]1SC[C@@H]2NC(=O)N[C@@H]21)C(=O)NCC(=O)N[C@@H](C)C(=O)N[C@@H](CC(=O)O)C(=O)N[C@@H](CO)C(=O)N[C@@H](CCC(N)=O)C(=O)N[C@H](C(=O)O)C(C)C [SLC2A1] ({X1-Suc}-FHPLGADSQV-OH; C-terminus assumed) | 4.05 | 4.02 |  | 3.58 | 25.1 µM | 69.2 µM
7 |  |  | CC(C)C[C@H](NC(=O)[C@H](CC(N)=O)NC(=O)[C@@H](NC(=O)[C@H](CCC(=O)O)NC(=O)[C@H](CC(=O)O)NC(=O)[C@H](Cc1c[nH]c2ccccc12)NC(=O)[C@H](C)NC(=O)[C@@H]1CCCN1C(=O)[C@H](CC(=O)O)NC(=O)[C@H](CC(N)=O)NC(=O)CCC(=O)NCCCOCCOCCOCCCNC(=O)CCCC[C@@H]1SC[C@@H]2NC(=O)N[C@@H]21)[C@@H](C)O)C(=O)O [ARHGEF7] ({X1-Suc}-NDPAWDETNL-OH; C-terminus assumed) | 5.66 | 5.50 | 4.68 | 5.08 | 1.51 µM | 1.35 µM

Reference: publication PMC9770967, “Native holdup (nHU) to measure binding affinities from cell extracts” (Science Advances, 2022)
